Here are results for one substance from patent US20240130966A1 (Aerovate Therapeutics, Inc., priority 2021, published 2024).

Read-outs that look alike come from different tables or passages of the source.

The procedure of the series:
Generator impactor profiles were prepared for ceramic milled powders both before and after conditioning with high humidity for a short time (80-90% RH at room temperature for ˜3 hours).
Again, the exposure consisted of 80%-90% relative humidity at room temperature for about 3 hours.

The mark [1] stands for this setting: Post-exposure, 80%-90% relative humidity at room temperature for about 3 hours (N=9).

For the substance Imatinib, the “FPF of emitted dose (%)” value by setting is: under setting [1], 66.8 +/− 4.3%; (Pre-exposure to humidity (N=7)) 52.3 +/− 6.3%. The “FPF of fill (%)” value under setting [1] was 48.1 +/− 3.0% and the “FPF of fill (%)” value (Pre-exposure to humidity (N=7)) is reported as 36.2 +/− 3.5%. The “Increase in fine particle dose (stage 3-MOC levels) after humidity conditioning” value (ceramic milled powders, 80-90% RH at room temperature for ~3 hours, FIG. 1) is on record as 10-20 % of the capsule fill dose. Moreover, the “Delivery performance after desorption compared to post-humidification powders” value (humidity for 12+ hours, then desorbed at <5% RH for about 24 hours) is “no change in delivery performance”.
